We go through two compounds from article PMC7461115, “Contribution of KCNQ and TREK Channels to the Resting Membrane Potential in Sympathetic Neurons at Physiological Temperature” (International Journal of Molecular Sciences, 2020).

Assay [1] deals with T1, TREK-2 (native riluzole-activated current IRIL in mouse SCG neurons) (Mus musculus, UniProt Q8BUW1).
T1 construct: gene Kcnk10; TREK-1 and TRAAK are also expressed at lower level
Put plainly: perforated-patch whole-cell voltage clamp, inhibition of riluzole-activated current. The class given is cell-based. As to conditions: riluzole 300 µM activator, TEA 15 mM, TTX 0.5 µM, CsCl 1 mM, -30 mV, room temperature, Hill coefficient 0.78.

The target of assay [2] is T2, TREK-2 (expressed in HEK293) (Mus musculus, UniProt Q8BUW1).
T2 construct: gene Kcnk10
T2 sequence (Q8BUW1 1-535): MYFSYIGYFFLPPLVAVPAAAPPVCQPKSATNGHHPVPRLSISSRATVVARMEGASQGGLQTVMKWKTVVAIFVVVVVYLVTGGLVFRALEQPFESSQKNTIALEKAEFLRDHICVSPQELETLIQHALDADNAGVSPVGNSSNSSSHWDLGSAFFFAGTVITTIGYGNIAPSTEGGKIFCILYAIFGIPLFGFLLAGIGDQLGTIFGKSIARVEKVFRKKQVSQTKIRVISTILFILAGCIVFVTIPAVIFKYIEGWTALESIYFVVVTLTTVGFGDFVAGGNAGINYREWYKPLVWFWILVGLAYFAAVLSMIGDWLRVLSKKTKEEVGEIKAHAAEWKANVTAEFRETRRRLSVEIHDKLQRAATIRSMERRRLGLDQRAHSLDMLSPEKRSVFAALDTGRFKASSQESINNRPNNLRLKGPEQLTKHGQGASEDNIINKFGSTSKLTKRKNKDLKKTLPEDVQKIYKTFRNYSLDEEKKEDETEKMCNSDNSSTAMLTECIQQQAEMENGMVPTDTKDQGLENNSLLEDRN
Put plainly: patch clamp of transfected HEK293 cells, inhibition of riluzole-evoked current.

The structures appear in SMILES notation.

On to `O=C1N(c2ccccc2)c2ccccc2C1(Cc1ccncc1)Cc1ccncc1` [linopirdine], for which the IC50 (in general, the concentration at which inhibition is half-maximal) in assay [1] was determined as 310 ± 60 nM. For the same compound, the inhibition (commonly how much of the control response was suppressed) at 0.3 µM in assay [2] (HEK293, read-out: % inhibition at 300 nM) amounted to 65.5 ± 5.93%. Turning to `O=C1c2ccccc2C(Cc2ccncc2)(Cc2ccncc2)c2ccccc21` [XE991], the inhibition at 1 µM in assay [2] (HEK293, read-out: % inhibition at 1 μM) amounted to 73.8 ± 1.93%.
